We go through 9 compounds from PMC6662822, “Rational drug-design approach supported with thermodynamic studies — a peptide leader for the efficient bi-substrate inhibitor of protein kinase CK2” (Scientific Reports, 2019).

For assay [1], the target named is T1, hCK2α (Homo sapiens, UniProt P68400).
T1 construct: His-tag; made in house
In words: Relaxation-filtered 1H NMR (transverse relaxation) of peptides in the presence of hCK2α. Type of assay: binding. Conditions: for R2,f, relaxation rate in the presence of hCK2α: 25 μM hCK2α, 2.5 mM peptide (100-fold excess), 25 mM Tris-HCl pH 7, 0.25 M NaCl, 10% D2O, global two-exponential fit, higher = stronger binding; for R2,f, relaxation rate in the presence of hCK2α / R2,s, relaxation rate for the free peptide: 25 °C; for R2,s, relaxation rate for the free peptide: same samples, slower component of the global two-exponential fit; for Relative binding to hCK2α, in words: relaxation-filtered NMR, compared with the other tested peptides. How it is done: NMR samples containing tested peptides and hCk2α were prepared in 25 mM Tris–HCl (pH 7, 0.25 M NaCl) buffer with 10% D2O. The protein concentration was 25 μM, and a 100-fold peptide excess (2.5 mM) was used throughout the studies.
The scoring of the peptides’ binding affinities towards hCK2α was done according to the results of ^1H transverse (T2) relaxation filtering experiment. All spectra were recorded at 25 °C on Bruker Avance 500 NMR spectrometer (11.7 T) using 18 delays (0, 1, 2, 3, 4, 5, 10, 15, 20, 25, 30, 35, 40, 45, 50, 100, 150 and 200 ms). The spectra of 7500 Hz spectral width, 16k data points each, were collected using 16 scans with 2.0 s recycling delay preceded by 8 dummy scans.
NMR data were further processed and analyzed with the SpinWorks software (version 4.2.8.0), using cosine-squared window function and Gaussian filter resulting in 0.3 Hz broadening with no solvent filter applied prior to Fourier transformation. We analyzed ^1H transverse relaxation rates of selected nuclei representative for each type of amino acid residues present in the tested peptides, i.e Hγ of Glu (2.3ppm), Hβ of Asp (2.8ppm), Hβ of Ser (3.8ppm), Hγ(CH3) of Thr (1.1 ppm) and Hε of Lys (2.9ppm), respectively. Additionally, the resonance signals of amide protons (8.2–8.9ppm) were also analyzed. We performed the relaxation-filtered experiment, with the relaxation delay varying in the range of 1 to 200 ms. Variation in the intensity of particular resonance signals were analyzed using the model of two-exponential decay (1):1 y=A1⋅exp(t∗R2,f)+A2⋅exp(t∗R2,s)+y0 where R2,s and R2,f are the transverse relaxation rates of the free and the fraction of the virtually bound peptide, respectively. For each peptide the global optimization procedure was applied for all identified resonance signals.

Assay [2] concerns the target T1, hCK2α. Description: ADP-Glo kinase assay, inhibitory activity towards human CK2α. Type of assay: biochemical. How it is done: The ADP-Glo kinase assay (Promega) was used to measure the inhibition effect of the tested compounds. The kinase assay was carried in 96-well plate in volume of 25 μl in 20 mM Tris–HCl (pH 7.5) buffer, containing 100 ng hCK2α (1 μl), 10 μM CK2 substrate peptide […] (Biaffin GmbH & Co KG), 10 μM ATP, 20 mM MgCl2 and 2.5 μl of serially diluted ligand in DMSO. The reaction was initiated with enzyme in and kept going for 20 min at 30 °C. Reaction was stopped by adding 25 μl of ADP-Glo reagent. After incubation at room temperature for 40 min (to consume the remaining […]) 50 μl of kinase detection reagent were added and incubated for additional 30 minutes to produce luminescence signal. Luminescence was measured with The SpectraMax iD3 Multi-Mode Microplate Reader (Molecular Devices).

Where a SMILES comes first, the peptide text is derived from it. Where no end group is shown, it is not given here. The star is where a group is joined. X1 = O=C(c1c(Br)c(Br)c(Br)c2nn[nH]c12)*

T1 sequence (P68400 whole entry): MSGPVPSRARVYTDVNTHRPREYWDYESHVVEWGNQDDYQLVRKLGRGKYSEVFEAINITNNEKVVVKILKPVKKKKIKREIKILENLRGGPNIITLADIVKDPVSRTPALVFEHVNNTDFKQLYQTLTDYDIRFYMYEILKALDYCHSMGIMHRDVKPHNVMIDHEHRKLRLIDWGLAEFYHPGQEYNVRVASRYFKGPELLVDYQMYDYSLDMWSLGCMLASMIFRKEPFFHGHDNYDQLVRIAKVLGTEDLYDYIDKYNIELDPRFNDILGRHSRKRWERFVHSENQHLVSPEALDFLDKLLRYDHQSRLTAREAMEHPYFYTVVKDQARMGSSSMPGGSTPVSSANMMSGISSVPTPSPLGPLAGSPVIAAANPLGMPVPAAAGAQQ

For the compound EETEDE-NH2, at hCK2α [1], the “R2,f, relaxation rate in the presence of hCK2α” value (“R2,f, relaxation rate” for short) is 17.2 ± 4.8 s⁻¹ and the “R2,s, relaxation rate for the free peptide” value was 3.7 ± 0.5 s⁻¹. “DESEEE-NH2 [peptide named only in b23, possibly a misprint of DETEEE-NH2]”: the “Relative binding to hCK2α, in words” value on hCK2α [1] is reported as “lower affinity”. As for DDTDDD-NH2, in the assay with hCK2α [1], the “R2,f, relaxation rate” value was 7.1 ± 0.8 s⁻¹ and the “Relative binding to hCK2α, in words” value is reported as “binds visibly weaker”. For `O=C(O)c1c(Br)c(Br)c(Br)c2nn[nH]c12` [7-COOH-Br3Bt], half-maximal inhibition at hCK2α [2] (ADP-Glo, 100 ng hCK2α, 10 μM RRRDDDSDDD, 10 μM ATP, 20 mM MgCl2, pH 7.5, 20 min 30 °C, global fit of three independent experiments) (IC50) required 8 ± 6.3 µM. In the case of EETEED-NH2, on hCK2α [1], the “R2,f, relaxation rate” value came out at 16.1 ± 2.3 s⁻¹ and the “R2,s, relaxation rate for the free peptide” value came out at 2.2 ± 0.5 s⁻¹. On to DETEEE-NH2, for which, on hCK2α [1], the “R2,f, relaxation rate” value is 10.4 ± 1.6 s⁻¹ and the “R2,s, relaxation rate for the free peptide” value is 2.2 ± 0.6 s⁻¹. The corresponding values for EETDEE-NH2 are 15.4 ± 2.1 s⁻¹ and 2.3 ± 0.5 s⁻¹. On to EDTEEE-NH2, for which, at hCK2α [1], the “R2,f, relaxation rate” value was 14.9 ± 2.5 s⁻¹ and the “R2,s, relaxation rate for the free peptide” value came out at 1.5 ± 0.7 s⁻¹. `NC(=O)[C@H](CCC(=O)O)NC(=O)[C@H](CCC(=O)O)NC(=O)[C@H](CCC(=O)O)NC(=O)[C@H](CO)NC(=O)[C@H](CCC(=O)O)NC(=O)[C@@H](N)CCCCNC(=O)c1c(Br)c(Br)c(Br)c2nn[nH]c12` [bi-substrate inhibitor] (H-K(X1)ESEEE-NH2): on hCK2α [2] (ratio of IC50 values), the “Enhancement of inhibitory activity versus low-mass precursor 7-COOH-Br3Bt” value was “over 10 fold”.
